Read-outs that look alike come from different tables or passages of the source.

Usually IC50 stands for the concentration needed to halve the response being measured. By melting point is commonly meant the temperature, or range, at which the solid turns liquid.

For data set [1], the system named is BJ-1 normal cell line. Nature of the data set: MTT cytotoxicity assay, normal BJ-1 fibroblasts (safety profile). It is filed as cell-based. As to conditions: Homo sapiens, read-out: IC50 (mean±SD) BJ-1. The protocol: […]. The safety profiles of all derivatives were assessed through cytotoxic evaluation using human fibroblast-derived BJ-1 normal cell lines. […].
(§1) The recently incorporated quinazolinone-based targets 1–4, 6–13 underwent evaluation for their cytotoxic effects with in vitro employing MTT technique, according to the procedure that has been published[48]–[50], utilizing human fibroblast-derived BJ-1 normal cell line, and human cancer liver HepG-2, breast MCF-7, and colon HCT-116 cell lines. These cell lines were purchased from Karolinska Center, Department of Oncology and Pathology, Karolinska Institute and Hospital, Stockholm, Sweden, There were further details in the supplemental file.
(§2) The cell lines were obtained from Karolinska Center, Department of Oncology and Pathology, Karolinska Institute and Hospital, Stockholm, Sweden as follows: human liver HepG-2, breast MCF-7, and colorectal HCT-116 cancer cell lines and human fibroblast-derived BJ-1 normal cell line. Exponentially, cells were placed in 10^4 cells/ well for 24 h, and then add fresh medium which containing different concentration of the tested sample. Serial two-fold dilution of the tested sample were added using a multichannel pipette. Moreover, all cells were cultivated at 37 °C, 5% CO2 and 95% humidity. Also, incubation of control cells occurred at 37 °C. However, after incubation for 24 h different concentrations of sample (25, 12.5, 6.25 and 3.125 µM) were added and continued the incubation for 48 h, then, add the crystal violet solution 1% to each well for 0.5 h to examine viable cells. Rinse the wells using water until no stain. After that, add 30% glacial acetic acid to all wells with shaking plates on Microplate reader (TECAN, Inc.) to measure the absorbance, using a test wavelength of 490 nm. Besides, compare the treated samples with the control cell. The cytotoxicity was estimated by IC50 in (μM), the concentration that inhibits 50% of growth of cancer cell.

In data set [2] the test system is HCT-116 cell line. Nature of the data set: MTT cytotoxicity assay, HCT-116. As to conditions: Homo sapiens, read-out: IC50 (mean±SD) HCT-116. The format is cell-based.
Description: as §1, §2

Data set [3] relates to MCF-7 cell line. Nature of the data set: MTT cytotoxicity assay, MCF-7. It is filed as cell-based. As to conditions: Homo sapiens, read-out: IC50 (mean±SD) MCF-7.
Description: as §1, §2
(In general: Tetrazolium assays rely on reduction of a dye to a coloured formazan, in cell work by metabolically active cells.)

The test system of data set [4] is HepG-2 cell line. Nature of the data set: MTT cytotoxicity assay, HepG-2. It is filed as cell-based. As to conditions: Homo sapiens, read-out: IC50 (mean±SD) HepG-2.
Description: as §1, §2

The target in data set [5] is VEGFR-2 (Homo sapiens, UniProt P35968). Nature of the data set: In vitro VEGFR-2 inhibition assay (ELISA). As to conditions: read-out: IC50 (mean ± SD) VEGFR-2; average of three values. In general terms: In an ELISA, binding on a coated surface is turned into a signal by an enzyme label.
Chain of VEGFR-2 (P35968 20-1356): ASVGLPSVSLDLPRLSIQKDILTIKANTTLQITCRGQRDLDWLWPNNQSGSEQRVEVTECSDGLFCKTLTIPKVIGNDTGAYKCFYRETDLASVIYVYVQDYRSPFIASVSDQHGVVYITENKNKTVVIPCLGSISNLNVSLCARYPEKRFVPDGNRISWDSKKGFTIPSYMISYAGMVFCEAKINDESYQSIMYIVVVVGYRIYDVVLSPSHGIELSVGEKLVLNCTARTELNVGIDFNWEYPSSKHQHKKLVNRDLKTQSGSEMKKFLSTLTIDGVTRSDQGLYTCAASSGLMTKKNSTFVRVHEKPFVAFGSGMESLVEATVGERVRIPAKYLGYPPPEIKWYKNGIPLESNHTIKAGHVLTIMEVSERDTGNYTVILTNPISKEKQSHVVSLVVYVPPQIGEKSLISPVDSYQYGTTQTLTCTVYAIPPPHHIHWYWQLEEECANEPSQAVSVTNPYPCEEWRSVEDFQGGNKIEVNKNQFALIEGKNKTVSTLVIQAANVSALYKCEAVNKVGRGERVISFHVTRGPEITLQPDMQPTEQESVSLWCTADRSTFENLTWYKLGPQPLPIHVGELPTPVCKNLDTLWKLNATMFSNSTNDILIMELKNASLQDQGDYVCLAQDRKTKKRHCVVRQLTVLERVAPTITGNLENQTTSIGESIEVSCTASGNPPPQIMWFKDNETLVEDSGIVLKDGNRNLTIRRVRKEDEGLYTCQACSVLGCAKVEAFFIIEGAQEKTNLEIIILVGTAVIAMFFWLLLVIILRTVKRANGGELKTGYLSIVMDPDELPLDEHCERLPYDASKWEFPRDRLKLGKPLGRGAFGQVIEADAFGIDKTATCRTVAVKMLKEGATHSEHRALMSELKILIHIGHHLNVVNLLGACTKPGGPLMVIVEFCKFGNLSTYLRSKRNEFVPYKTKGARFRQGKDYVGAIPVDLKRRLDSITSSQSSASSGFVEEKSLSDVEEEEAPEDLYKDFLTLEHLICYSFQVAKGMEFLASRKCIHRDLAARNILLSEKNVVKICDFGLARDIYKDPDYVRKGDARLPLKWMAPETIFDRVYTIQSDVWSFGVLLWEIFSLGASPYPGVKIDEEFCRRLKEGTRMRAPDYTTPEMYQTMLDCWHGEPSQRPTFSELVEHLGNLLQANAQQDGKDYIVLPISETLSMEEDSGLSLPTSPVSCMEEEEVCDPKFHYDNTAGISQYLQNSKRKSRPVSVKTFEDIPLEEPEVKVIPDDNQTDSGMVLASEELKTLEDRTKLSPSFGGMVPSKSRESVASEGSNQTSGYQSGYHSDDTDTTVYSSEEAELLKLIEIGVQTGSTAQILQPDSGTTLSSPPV
For data set [6], the target named is EGFR (Homo sapiens, UniProt P00533). Nature of the data set: In vitro EGFR inhibition assay (Kinase-Glo luminescence). A general note: Kinase-Glo reads ATP consumption through a luciferase reaction.
Chain of EGFR (P00533 25-1210): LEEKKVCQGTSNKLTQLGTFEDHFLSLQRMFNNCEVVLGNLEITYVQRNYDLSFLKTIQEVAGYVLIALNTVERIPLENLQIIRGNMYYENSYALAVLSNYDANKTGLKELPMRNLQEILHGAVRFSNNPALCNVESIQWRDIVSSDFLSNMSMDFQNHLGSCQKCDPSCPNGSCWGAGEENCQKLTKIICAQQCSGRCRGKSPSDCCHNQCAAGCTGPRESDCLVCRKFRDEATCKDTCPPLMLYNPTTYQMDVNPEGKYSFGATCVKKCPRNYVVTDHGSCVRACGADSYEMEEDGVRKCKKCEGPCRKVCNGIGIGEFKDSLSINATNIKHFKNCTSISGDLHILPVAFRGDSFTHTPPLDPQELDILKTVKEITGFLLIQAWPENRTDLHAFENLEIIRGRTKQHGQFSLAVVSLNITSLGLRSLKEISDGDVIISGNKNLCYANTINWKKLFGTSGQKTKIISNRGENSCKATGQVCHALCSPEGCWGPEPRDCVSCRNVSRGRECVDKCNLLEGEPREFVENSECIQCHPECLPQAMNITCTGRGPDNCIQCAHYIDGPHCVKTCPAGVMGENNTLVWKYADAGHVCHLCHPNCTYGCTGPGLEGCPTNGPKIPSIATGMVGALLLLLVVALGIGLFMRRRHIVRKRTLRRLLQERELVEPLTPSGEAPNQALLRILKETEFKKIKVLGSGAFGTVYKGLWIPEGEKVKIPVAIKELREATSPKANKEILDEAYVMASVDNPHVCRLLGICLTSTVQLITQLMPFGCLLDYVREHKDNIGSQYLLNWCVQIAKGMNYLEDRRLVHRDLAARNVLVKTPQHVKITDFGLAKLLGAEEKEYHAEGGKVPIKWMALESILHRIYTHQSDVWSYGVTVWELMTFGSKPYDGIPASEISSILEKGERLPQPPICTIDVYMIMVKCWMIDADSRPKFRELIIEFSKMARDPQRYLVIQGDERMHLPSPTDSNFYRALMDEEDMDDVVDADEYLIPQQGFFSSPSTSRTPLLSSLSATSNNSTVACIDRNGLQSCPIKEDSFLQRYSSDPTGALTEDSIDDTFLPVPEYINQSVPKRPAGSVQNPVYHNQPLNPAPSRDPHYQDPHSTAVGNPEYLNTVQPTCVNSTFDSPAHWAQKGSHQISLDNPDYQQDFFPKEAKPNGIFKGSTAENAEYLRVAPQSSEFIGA
Where [7] appears, read: BJ-1 normal fibroblast-derived cells, 48 h incubation, mean of three values.
The mark [8] stands for this setting: HCT-116 colorectal cancer cells, 48 h incubation, mean of three values.
Where [9] appears, read: MCF7, MCF-7 breast cancer cells, 48 h incubation, mean of three values.
[10] abbreviates: HepG2, HepG-2 liver cancer cells, 48 h incubation, mean of three values.

Take `COc1cccc2c1C(=O)c1c(O)c3c(c(O)c1C2=O)C[C@@](O)(C(=O)CO)C[C@@H]3O[C@H]1C[C@H](N)[C@H](O)[C@H](C)O1` [Doxorubicin, reference compound]: the IC50 in data set [1] (setting [7]) was 32.1 ± 3.1 µM; in data set [2] (setting [8]) it was 6.5 ± 0.5 µM; in data set [3] (setting [9]), 5.6 ± 0.3 µM; in data set [4] (setting [10]) it was 4.8 ± 0.5 µM.
As to `Cn1c(S)nc2ccccc2c1=O` [Compound 2], the IC50 in data set [1] (setting [7]) was greater than 25 µM; in data set [2] (setting [8]) it was 16.1 ± 1.3 µM; in data set [3] (setting [9]) it was 14.9 ± 1.3 µM; in data set [4] (setting [10]), 24.1 ± 3.1 µM.
The compound `CC(=O)O[C@@H]1[C@@H](OC(C)=O)[C@H](OC(C)=O)CO[C@H]1n1cc(CSc2nc3ccccc3c(=O)n2-c2ccccc2)nn1` [Compound 8, 2-(((1-[2,3,4-tri-O-acetyl-β-D-xylopyranosyl]-1 H-1,2,3-triazol-4-yl)methyl)thio)-3-phenylquinazolin-4(3 H)-one] returned a melting point of 210 to 212 °C. Besides, in data set [1] (setting [7]), the IC50 was greater than 25 µM. The IC50 in data set [2] (setting [8]) was less than 3.12 µM. The IC50 in data set [5] stood at 28.4 ± 0.5 µM. Further, the IC50 in data set [6] was found to be 21.38 ± 0.15 µM. Moreover, the IC50 in data set [3] (setting [9]) is 14 ± 1.2 µM. Moreover, in data set [4] (setting [10]), the IC50 was 21.4 ± 3.1 µM.
Turning to `CC(=O)OC[C@H]1O[C@@H](n2cc(CSc3nc4ccccc4c(=O)n3C)nn2)[C@H](OC(C)=O)[C@@H](OC(C)=O)[C@H]1OC(C)=O` [Compound 7, 2-(((1-[2,3,4,6-Tetra-O-acetyl-β-D-galactopyranosyl]-1 H-1,2,3-triazol-4-yl)methyl)thio)-3-methylquinazolin-4(3 H)-one], the IC50 in data set [1] (setting [7]) was 22.9 ± 3.2 µM; in data set [2] (setting [8]), 5.5 ± 0.1 µM; in data set [5], 36.33 ± 0.17 µM; in data set [6] it was 17.94 ± 0.1 µM; in data set [3] (setting [9]), 17.3 ± 0.5 µM; in data set [4] (setting [10]) it was 21.5 ± 2.5 µM.
Consider `C#CCSc1nc2ccccc2c(=O)n1-c1ccccc1` [Compound 3], for which the IC50 in data set [1] (setting [7]) was greater than 25 µM; in data set [2] (setting [8]) it was 14.8 ± 1.6 µM; in data set [3] (setting [9]), 15.9 ± 1.3 µM; in data set [4] (setting [10]), greater than 25 µM.
Regarding `C#Cc1cccc(Nc2ncnc3cc(OCCOC)c(OCCOC)cc23)c1` [Erlotinib, reference compound], the concentration for half-maximal inhibition (IC50) in data set [1] (Fibroblast, 48 h) came out at 58.3 ± 1.4 µM; in data set [2] (HCT-116, 48 h) it was 7.3 ± 0.2 µM; in data set [3] (MCF7, 48 h) it was 4.3 ± 0.1 µM; in data set [4] (HepG2, 48 h), 7.8 ± 0.2 µM.
Take `O=c1c2ccccc2nc(SCc2cn([C@@H]3O[C@H](CO)[C@H](O)[C@H](O)[C@H]3O)nn2)n1-c1ccccc1` [Compound 10, 2-(((1-[β-D-Galactopyranosyl]-1 H-1,2,3-triazol-4-yl)methyl)thio)-3-phenylquinazolin-4(3 H)-one]: the IC50 in data set [1] (setting [7]) amounted to 23.5 ± 3.1 µM; in data set [2] (setting [8]), 6.4 ± 0.4 µM; in data set [5] it was 22.33 ± 0.1 µM; in data set [6] it was 16.75 ± 0.05 µM; in data set [3] (setting [9]), 8.1 ± 0.6 µM; in data set [4] (setting [10]) it was 17.1 ± 1.1 µM.
Turning to `CC(=O)O[C@@H]1[C@@H](OC(C)=O)[C@H](OC(C)=O)CO[C@H]1n1cc(CSc2nc3ccccc3c(=O)n2C)nn1` [Compound 9, 2-(((1-[2,3,4-tri-O-acetyl-β-D-xylopyranosyl]-1 H-1,2,3-triazol-4-yl)methyl)thio)-3-methylquinazolin-4(3 H)-one], the melting point was 146 to 148 °C. The IC50 in data set [1] (setting [7]) is greater than 25 µM. In addition, in data set [2] (setting [8]), the IC50 stood at 3.2 ± 0.2 µM. For the same compound, in data set [5], the IC50 was determined as 30.6 ± 0.32 µM. Also, in data set [6], the IC50 worked out at 23.05 ± 0.08 µM. In addition, the IC50 in data set [3] (setting [9]) is 12.6 ± 1.3 µM. Also, the IC50 in data set [4] (setting [10]) amounted to 22.9 ± 2.3 µM.
`O=c1c2ccccc2nc(S)n1-c1ccccc1` [Compound 1]: the IC50 was greater than 25 µM in data set [1] (setting [7]), 18.6 ± 1.5 µM in data set [2] (setting [8]), 16.1 ± 1.1 µM in data set [3] (setting [9]) and 21.9 ± 1.9 µM in data set [4] (setting [10]).
As for `CC(=O)OC[C@H]1O[C@@H](n2cc(CSc3nc4ccccc4c(=O)n3-c3ccccc3)nn2)[C@H](OC(C)=O)[C@@H](OC(C)=O)[C@H]1OC(C)=O` [Compound 6, 2-(((1-[2,3,4,6-Tetra-O-acetyl-β-D-galactopyranosyl]-1 H-1,2,3-triazol-4-yl)methyl)thio)-3-phenylquinazolin-4(3 H)-one], the melting point was 90 to 92 °C. Besides, in data set [1] (setting [7]), the IC50 was greater than 25 µM. Besides, the IC50 in data set [2] (setting [8]) is 3.2 ± 0.1 µM. The IC50 in data set [5] worked out at 32.25 ± 0.25 µM. The compound further registered an IC50 in data set [6] of 18.63 ± 0.14 µM. Also, the IC50 in data set [3] (setting [9]) was found to be 13.4 ± 1.2 µM. In addition, the half-maximal inhibitory concentration (IC50) in data set [4] (setting [10]) is 19.2 ± 2.1 µM.
On to `C#CCSc1nc2ccccc2c(=O)n1C` [Compound 4, 3-methyl-2-(prop-2-yn-1-ylthio)quinazolin-4(3 H)-one], for which the melting point fell in the range of 163 to 165 °C. Moreover, the IC50 in data set [1] (setting [7]) is greater than 25 µM. In data set [2] (setting [8]), the IC50 came to 13.5 ± 1.1 µM. Also, the IC50 in data set [3] (setting [9]) stood at 14.6 ± 1.1 µM. Further, the IC50 in data set [4] (setting [10]) came to 21.9 ± 2.7 µM.
With `Cn1c(SCc2cn([C@@H]3O[C@H](CO)[C@H](O)[C@H](O)[C@H]3O)nn2)nc2ccccc2c1=O` [Compound 11, 2-(((1-[β-D-Galactopyranosyl]-1 H-1,2,3-triazol-4-yl)methyl)thio)-3-methylquinazolin-4(3 H)-one], the IC50 in data set [1] (setting [7]) is greater than 25 µM; in data set [2] (setting [8]), 5.9 ± 0.1 µM; in data set [5], 22.86 ± 0.13 µM; in data set [6] it was 0.35 ± 0.11 µM; in data set [3] (setting [9]), 5.7 ± 0.2 µM; in data set [4] (setting [10]), 17.8 ± 2.1 µM.
`O=c1c2ccccc2nc(SCc2cn([C@@H]3OC[C@@H](O)[C@H](O)[C@H]3O)nn2)n1-c1ccccc1` [Compound 12, 2-(((1-[β-D-Xylopyranosyl]-1 H-1,2,3-triazol-4-yl)methyl)thio)-3-phenylquinazolin-4(3 H)-one]: the IC50 stood at 24.7 ± 2.4 µM in data set [1] (setting [7]); 3 ± 0.3 µM in data set [2] (setting [8]); 13.63 ± 0.08 µM in data set [5]; 15.88 ± 0.14 µM in data set [6]; 6.9 ± 0.3 µM in data set [3] (setting [9]); 15.1 ± 1.9 µM in data set [4] (setting [10]).

For the origin of these results see PMC11500008, “Novel quinazolin-4-one based derivatives bearing 1,2,3-triazole and glycoside moieties as potential cytotoxic agents through dual EGFR and VEGFR-2 inhibitory activity” (Scientific Reports, 2024).
